# “Also recorded” adds a separate entry of the source.
# Experiments:
# MCF-7 Her18 = test: Cell death in MCF7 cells stably transfected with the Her2 gene; type: cell-based, human; conditions: ectopic Her2 on a heterologous promoter
# Description: In contrast to the Her2-overexpressing cells, MDA-MB-468, a breast cancer cell line with no detectable levels of Her2, was resistant to TAT-ESX129-145 (FIGS. 5A and 5B). […] The effects of TAT-ESX129-145 on an MCF7 cell line stably transfected with the Her2 gene were examined.
# [1] = tested on: NF-κB p65 activation domain; test: Transcription reporter gene assay (GAL4 fusion, SEAP), NF-κB p65 activation domain; type: cell-based, human; conditions: HEK293 cells, 20 μM, 10-hr incubation
# Procedure: (§1) mammalian expression vectors, each encoding the activation domain of ESX, VP16, or NF-κB p65 fused with the GAL4 DNA-binding domain (amino acids 1-94), were used. Each expression construct was co-transfected to HEK293Tag human kidney cells together with a reporter plasmid in which the production of secreted alkaline phosphatase (SEAP) is under control of an IL2 promoter carrying five GAL4 binding sites. After 10-hr incubation with wrenchnolol (20 μM), an aliquot of the culture was assayed for SEAP activity.
# VP16 activation domain = test: Transcription reporter gene assay (GAL4 fusion, SEAP), VP16 activation domain; type: cell-based; conditions: HEK293 cells, 20 μM, 10-hr incubation
# Procedure: (§2) Mammalian expression vectors each encoding the activation domain of ESX, VP16, or NFκBp65 fused with the GAL4 DNA-binding domain were used. Each expression construct was co-transfected to HEK293Tag human kidney cells together with a reporter plasmid in which the production of secreted alkaline phosphatase (SEAP) is under control of an IL-2 promoter carrying five GAL4 binding sites. After a 24 hour incubation in the presence or absence of adamanolol, an aliquot of the culture was assayed for SEAP activity. The total amounts of transfected DNA were normalized.
# as §1
# ESX-Sur-2 interaction = molecular target: T1, ESX-Sur-2 interaction (Homo sapiens, UniProt Q9ULK4); test: Inhibition of the ESX-Sur-2 interaction in vitro (fluorescence of FITC-ESX129-145 with GST-Sur2352-625); type: binding
# T1 construct: made in house
# T1 sequence (Q9ULK4 352-625): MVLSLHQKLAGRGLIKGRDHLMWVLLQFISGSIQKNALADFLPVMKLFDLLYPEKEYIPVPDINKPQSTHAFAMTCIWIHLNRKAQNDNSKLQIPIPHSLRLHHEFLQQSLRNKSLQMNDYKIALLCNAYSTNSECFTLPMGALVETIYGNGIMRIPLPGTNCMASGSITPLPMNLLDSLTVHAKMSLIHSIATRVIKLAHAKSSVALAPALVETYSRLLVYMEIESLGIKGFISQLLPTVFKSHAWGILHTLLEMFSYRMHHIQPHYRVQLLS
# Procedure: To monitor the ESX-DRIP130 interaction, we labeled ESX129-145 with fluorescein isothiocyanate (FITC; Pierce) at the Lys144 position and measured its fluorescence spectra upon adding the glutatathione-S′-transferase (GST) fusion of DRIP130352-625. ESX129-145 was synthesized by standard Fmoc chemistry (the NH2 terminus was capped by an acetyl group during the synthesis) and purified by HPLC. The peptide was then coupled with FITC at the Lys144 position in a conjugation buffer (100 mM carbonate-bicarbonate buffer, pH 9) in dark and purified by NAP-5 desalting column (Amersham). The labeled peptide was quantified by UV and visible absorbance.
# GST-Sur-2352-625 was expressed and purified. Varied concentrations of the fusion protein were added to FITC-ESX129-145 (10 nM) in phosphate buffered saline containing 2% (v/v) ethanol, and the fluorescence spectra of FITC-ESX129-145 were measured by an ABI LS-50B Fluorescence Spectrometer (Ex: 490 nm). The dissociation constant of the interaction was estimated to be 12 μM through the emission perturbation at 522 nm.
# To examine the effects of adamanolol on the interaction in vitro, the ethanol component of the binding buffer was replaced with an ethanolic solution of adamanolol. The fractions of FITC-ESX129-145 (10 nM) bound to 50 μM of GST-Sur-2352-625 were estimated by measuring fluorescence emission at 522 nm. ESX129-145 and pindolol were used as positive and negative controls, respectively.
# In another series of derivatives (the R3 substituents in Table 1), the adamantane group of adamanolol was substituted (11a-d). […] The binding fractions were calculated on the basis of fluorescence spectra of FITC-ESX129-145 (152 nM) in presence of GST-Sur2352-625 (212 nM) and varied concentrations of each adamanolol derivative.
# Her2 = Her2 protein expression by western blot of cell lysates; type: cell-based, human; conditions: SK-BR3 cells, 7 μM, 24 hrs; alpha-tubulin not reduced
# Description: Sur-2 is a human homolog of […] elegans Sur-2, a protein of unknown function whose mutations suppress the phenotype of an activated ras mutation (Singh et al., 1995), and it has been linked to the transcription-activating function of the adenovirus E1A protein and the Elk-1 transcription factor. […] To test this, we designed a cell-permeable peptide that binds Sur-2 (referred to as TAT-ESX129-145). The design takes advantage of the binding affinity of ESX129-145 and the cell internalization property of the 11-aa peptide derived from the HIV TAT protein. We first examined whether TAT ESX129-145 reduces endogenous expression of the Her2 gene in three Her2-overexpressing breast cancer cell lines, SK-BR-3, MDA-MB-453, and […] (FIG. 4). Cells were incubated in the presence or absence of TAT-ESX129-145, and the protein levels of Her2 were examined by Western blot analyses of normalized amounts of cell lysates.
# Her2-overexpressing SK-BR3 cells were treated by 7.3 μM of adamanolol for 24 hrs, and whole cell lysates were analyzed by western blots. […]
# SK-BR3 cells were treated by 7 μM of wrenchnolol for 24 hrs, and whole cell lysates were analyzed by western blots. […]
# Sur-2 (GST-Sur2352-625) = molecular target: T2, Sur-2 (GST-Sur2352-625) (Homo sapiens, UniProt Q9ULK4); test: Fluorescence perturbation of fluorescein conjugate 9 by GST-Sur2352-625; type: binding; conditions: measured with fluorescein conjugate 9, emission at 522 nm
# T2 construct: made in house
# T2 sequence (Q9ULK4 352-625): T1 sequence (Q9ULK4 352-625)
# Procedure: (§3) HeLa cell nuclear extracts were prepared as described47 and incubated with a biotin conjugate of wrenchnolol (8) (100 μM) at 4° C. for 24 hrs. The samples were incubated with Neutravidin affinity resin (Pierce) at 4° C. for 2 hrs and extensively washed with PBS buffer containing 0.5% Nonidet P-40. The bound proteins were then separated by SDS/PAGE and analyzed by western blots with an antibody against human Sur-2 or by silver-staining. A=Ao+0.5.e([9]o+(([9]o+[P]oKd)2−4[9]o[P]o)0.5)
# Where A and Ao are the values of fluorescence intensity of 9 in the presence or absence of GST-Sur2352-625, respectively, and .e is the differential fluorescence intensity of 1 μM of 9 in the presence of an infinite concentration of protein and in its absence. [9]o and [P]o are the total concentrations of 9 and protein added, respectively.
# The fluorescein conjugate 9 also enabled evaluation of the Kd value of the interaction between wrenchnolol and Sur-2 in vitro. Shown in FIG. 22C are relative emission intensities of 9 at 522 nm (excitation: 490 nm) in the presence of varied concentrations of GST-Sur2352-625. When a GST fusion of Sur-2 protein (GST-Sur2352-625) was added to a solution of conjugate 9, the fluorescence intensity of 9 at 522 nm was decreased ([…]).
# ESX activation domain = test: Transcription reporter gene assay (GAL4 fusion, SEAP), ESX activation domain; type: cell-based, human; conditions: HEK293 cells, 20 μM, 10-hr incubation
# Procedure: as §2, §1
# [2] = tested on: SK-BR3 breast cancer cells; test: Cell viability assay (WST-1) in SK-BR3 breast cancer cells; type: cell-based, human
# Procedure: SK-BR3 breast cancer cells were plated on 96-well plates at density of 5×10^3 cells/well and maintained for 24 hrs. The cells were then incubated with varied concentrations of each compound for 48 hrs, followed by addition of Premix WST-1 Solution (Takara). Cell viability was estimated by measuring absorbance at 450 nm after 1 hr with a SPECTRAmax microplatereader.
# [3] = Solubility in neutral aqueous solution; type: physicochemical; conditions: amino group of the handle protonated
# Procedure: When the amino group of the handle was protonated, wrenchnolol (7b) and its aminopropyl version (7a) became soluble up to ˜1 mM in neutral aqueous solution. The high water solubility enabled NMR analysis of these molecules in a buffered aqueous solution, and their proton signals were completely assigned through a combination of NOESY, DQF-COSY, and HOHAHA data sets (Table S1).
# Sur-2 = molecular target: T3, Sur-2 (Homo sapiens, UniProt Q9ULK4); test: Sur-2 interaction of biotin conjugate in HeLa cell nuclear extracts (Neutravidin affinity, western blot); type: binding; conditions: 100 μM, 4° C., 24 hrs
# T3 construct: HeLa cell nuclear extracts were prepared as described47 and incubated with a biotin conjugate of wrenchnolol (8); endogenous in cells; host or cells: HeLa cell nuclear extracts
# T3 sequence (Q9ULK4 1-1368): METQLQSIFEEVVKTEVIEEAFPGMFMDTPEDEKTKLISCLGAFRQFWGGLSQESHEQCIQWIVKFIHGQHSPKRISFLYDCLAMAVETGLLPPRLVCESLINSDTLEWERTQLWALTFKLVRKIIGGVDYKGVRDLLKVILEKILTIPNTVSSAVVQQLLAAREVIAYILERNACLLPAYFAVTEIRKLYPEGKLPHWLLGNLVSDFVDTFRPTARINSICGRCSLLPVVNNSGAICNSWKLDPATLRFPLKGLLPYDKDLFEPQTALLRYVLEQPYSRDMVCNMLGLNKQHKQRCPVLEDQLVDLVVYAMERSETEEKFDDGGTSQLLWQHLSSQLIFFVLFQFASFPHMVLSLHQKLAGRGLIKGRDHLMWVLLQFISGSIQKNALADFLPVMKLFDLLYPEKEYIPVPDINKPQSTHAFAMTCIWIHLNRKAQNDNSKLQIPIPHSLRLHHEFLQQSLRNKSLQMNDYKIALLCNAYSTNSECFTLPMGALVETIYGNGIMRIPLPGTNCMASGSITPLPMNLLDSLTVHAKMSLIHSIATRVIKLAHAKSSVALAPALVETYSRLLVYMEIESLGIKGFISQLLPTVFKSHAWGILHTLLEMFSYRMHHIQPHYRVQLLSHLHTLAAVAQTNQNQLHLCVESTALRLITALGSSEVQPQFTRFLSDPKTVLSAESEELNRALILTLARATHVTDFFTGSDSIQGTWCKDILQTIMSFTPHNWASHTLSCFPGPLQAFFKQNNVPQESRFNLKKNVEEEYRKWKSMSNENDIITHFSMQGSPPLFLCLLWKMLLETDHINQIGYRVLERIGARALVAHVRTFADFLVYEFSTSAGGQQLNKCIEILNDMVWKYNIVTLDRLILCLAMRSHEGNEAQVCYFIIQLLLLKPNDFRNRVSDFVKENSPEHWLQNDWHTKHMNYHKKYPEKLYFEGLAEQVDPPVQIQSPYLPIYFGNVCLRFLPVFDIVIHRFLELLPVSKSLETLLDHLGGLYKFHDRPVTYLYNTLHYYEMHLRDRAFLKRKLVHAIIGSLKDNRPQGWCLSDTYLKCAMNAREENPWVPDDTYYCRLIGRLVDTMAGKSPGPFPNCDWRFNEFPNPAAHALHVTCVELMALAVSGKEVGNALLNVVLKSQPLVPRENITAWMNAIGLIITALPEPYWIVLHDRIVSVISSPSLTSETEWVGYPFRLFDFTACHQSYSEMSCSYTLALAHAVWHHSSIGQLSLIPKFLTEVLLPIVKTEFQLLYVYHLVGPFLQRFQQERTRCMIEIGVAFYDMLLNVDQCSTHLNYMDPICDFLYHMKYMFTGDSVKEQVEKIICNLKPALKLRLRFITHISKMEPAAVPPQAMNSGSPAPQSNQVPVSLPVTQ
# Procedure: as §3
# To confirm the interaction of wrenchnolol with Sur-2 in a cellular context, a biotin conjugate of wrenchnolol (8) was synthesized (Scheme 1) and incubated with cell nuclear extracts. The bound proteins were purified through an avidin affinity column, separated on an SDS-PAGE gel, and analyzed by western blots with a Sur-2 antibody. […] One of the silver-stained bands matched the western-blotted band of Sur-2, while the identities of the other bands remained unknown. Sur-2 (also called DRIP130 or CRSP130) is a subunit of the human mediator complexes. The additional bands may include those of the other subunits copurified with Sur-2.
molecule,measurement,setting,value
"ESX129-145: 17-aa segment of the ESX activation domain (TSSSSDELSWIIELLEK; UniProt P78545 129-145, looked up, fragment)",peptide-mediated cell death in Her2-transfected MCF7 cells,MCF-7 Her18,resistant
"Cc1ccc(S(=O)(=O)n2ccc3c(OCC(O)CN(CCCCCN)C(=O)N4CCC(C5CCN(C(=O)C67CC8CC(CC(C8)C6)C7)CC5)CC4)cccc32)cc1 (stereo not drawn) [Compound 7b, Wrenchnolol]",effect on the NF-κB p65 activation domain,[1],much milder effects
same,effect on the VP16 activation domain,VP16 activation domain,much milder effects
same,IC50,"ESX-Sur-2 interaction; FITC-ESX129-145 (152 nM), GST-Sur2352-625 (212 nM)",10 ± 1.5 µM
same,inhibition of the ESX-Sur-2 interaction in vitro (in words),ESX-Sur-2 interaction; in vitro fluorescence assay,more strongly than adamanolol
same,expression of Her2 protein,Her2,reduces; also recorded: inhibition of Her2 protein expression
same,Kd of the wrenchnolol-Sur-2 interaction,Sur-2 (GST-Sur2352-625),low μM range
same,ability of the ESX activation domain to activate the reporter gene,ESX activation domain,impaired; also recorded: selectively impairs
same,IC50,"[2]; 48 hrs incubation, WST-1",6.9 µM
same,"ability to kill SK-BR3 cells (biological activity, in words)",[2]; compared with adamanolol,no less active than adamanolol
same,solubility in neutral aqueous solution,[3],~1000 µM
O=C(O)CCCC[C@@H]1SC[C@@H]2NC(=O)N[C@@H]21 [Compound 13],retention of Sur-2 protein on the affinity column,Sur-2,no Sur-2 protein was detected
